Source: US20230357447A1, “TUMOR ACTIVATED MULTISPECIFIC ANTIBODIES FOR TARGETING CD28 AND PD-L1 AND METHODS OF USE THEREOF” (Janux Therapeutics, Inc., priority 2022, published 2023)

Columns and labels:
[1] = test system: anti-CD28 scFv (SEQ ID NO: 9); test: Octet bio-layer interferometry kinetic binding of anti-CD28 scFv to peptides; design: species or system human; conditions: Octet RED96; biotinylated peptide loaded on streptavidin biosensor; anti-CD28 scFv in solution; 1:1 binding model
Description: (§1) Association and dissociation signals were recorded in real time and analyzed using a 1:1 binding model within the instrument software. Analysis using a 1:1 binding model enabled the calculation of the on and off rate constants as well as affinity, KD.
as §1

[2] = test system: anti-CD28 scFv; test: Phage binding ELISA (panning) of clonal phage on anti-CD28 scFv, with or without CD28 soluble protein; conditions: clonal phage supernatant
In short: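 Wells pre-incubated with blocking buffer plus CD28 soluble protein or blocking buffer alone, then crude clonal phage supernatants added without washing for a short incubation. After washing, bound phage detected with HRP-conjugated anti-M13 antibody.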

[3] = background (no anti-CD28 scFv signal)

| Compound | kdis [1] [s⁻¹] | Phage binding ELISA Backgroud signal [2, 3] | also measured |
| --- | --- | --- | --- |
| CC[C@H](C)[C@@H]1NC(=O)[C@@H]2CCCN2C(=O)[C@@H](NC(=O)[C@H](Cc2c[nH]c3ccccc23)NC(=O)[C@H](CC(=O)O)NC(=O)[C@@H](N)CCSC)CSSC[C@@H](C(=O)N[C@@H](Cc2ccccc2)C(=O)N[C@@H](Cc2ccccc2)C(=O)O)NC(=O)[C@H](CCC(=O)O)NC(=O)[C@H](CC(N)=O)NC(=O)[C@H](Cc2c[nH]c3ccccc23)NC(=O)[C@H](CC(C)C)NC(=O)[C@H](CC(=O)O)NC1=O [Peptide-31] | 0.00369 | – | – |
| CC[C@H](C)[C@@H]1NC(=O)[C@@H]2CCCN2C(=O)[C@@H](NC(=O)[C@H](Cc2c[nH]c3ccccc23)NC(=O)[C@H](CC(=O)O)NC(=O)[C@@H](N)CCSC)CSSC[C@@H](C(=O)N[C@@H](Cc2ccccc2)C(=O)N[C@@H](CC(N)=O)C(=O)O)NC(=O)[C@H](C(C)C)NC(=O)[C@H](Cc2c[nH]cn2)NC(=O)[C@H](Cc2c[nH]c3ccccc23)NC(=O)[C@H](CC(C)C)NC(=O)[C@H](Cc2c[nH]cn2)NC1=O [Peptide-32] | 0.00295 | – | – |
| CC[C@H](C)[C@@H]1NC(=O)[C@@H]2CCCN2C(=O)[C@@H](NC(=O)[C@H](Cc2c[nH]c3ccccc23)NC(=O)[C@H](CC(=O)O)NC(=O)[C@@H](N)CCSC)CSSC[C@@H](C(=O)N[C@@H](Cc2ccccc2)C(=O)N[C@@H](CC(N)=O)C(=O)O)NC(=O)[C@H](CCC(=O)O)NC(=O)[C@H](CO)NC(=O)[C@H](Cc2c[nH]c3ccccc23)NC(=O)[C@H](CC(C)C)NC(=O)[C@H](Cc2ccc(O)cc2)NC1=O [Peptide-33] | 0.00153 | – | – |
| CC[C@H](C)[C@@H]1NC(=O)[C@H](CC(=O)O)NC(=O)[C@H](CCCCN)NC(=O)[C@@H]2CCCN2C(=O)[C@@H](NC(=O)[C@H](Cc2c[nH]c3ccccc23)NC(=O)[C@H](CC(N)=O)NC(=O)[C@@H](N)CCSC)CSSC[C@@H](C(=O)N[C@@H](Cc2ccccc2)C(=O)N[C@@H](CC(N)=O)C(=O)O)NC(=O)[C@H](CC(C)C)NC(=O)[C@H](Cc2ccc(O)cc2)NC(=O)[C@H](Cc2c[nH]c3ccccc23)NC1=O [Peptide-34] | 0.00684 | – | – |
| CSCC[C@@H]1NC(=O)[C@H](Cc2c[nH]cn2)NC(=O)[C@H](CC(C)C)NC(=O)[C@@H]2CCCN2C(=O)[C@@H](NC(=O)[C@H](Cc2c[nH]c3ccccc23)NC(=O)[C@H](CC(=O)O)NC(=O)[C@@H](N)CCSC)CSSC[C@@H](C(=O)N[C@@H](Cc2ccccc2)C(=O)N[C@@H](CO)C(=O)O)NC(=O)[C@H](CCC(=O)O)NC(=O)[C@H](Cc2c[nH]cn2)NC(=O)[C@H](Cc2c[nH]c3ccccc23)NC1=O [Peptide-35] | 0.00497 | – | – |
| CSCC[C@H](N)C(=O)N[C@@H](CC(=O)O)C(=O)N[C@@H](Cc1c[nH]c2ccccc12)C(=O)N[C@H]1CSSC[C@@H](C(=O)N[C@@H](Cc2ccccc2)C(=O)N[C@@H](CC(N)=O)C(=O)O)NC(=O)[C@H](CCC(=O)O)NC(=O)[C@H](CC(N)=O)NC(=O)[C@H](Cc2c[nH]c3ccccc23)NC(=O)[C@H](CC(C)C)NC(=O)[C@H](Cc2ccc(O)cc2)NC(=O)[C@H](CC(C)C)NC(=O)[C@@H]2CCCN2C1=O [Peptide-36] | 0.00252 | – | – |
| CSCC[C@H](N)C(=O)N[C@@H](CC(=O)O)C(=O)N[C@@H](Cc1c[nH]c2ccccc12)C(=O)N[C@H]1CSSC[C@@H](C(=O)N[C@@H](Cc2ccccc2)C(=O)N[C@@H](C)C(=O)O)NC(=O)[C@H](CC(C)C)NC(=O)[C@H](CC(=O)O)NC(=O)[C@H](Cc2c[nH]c3ccccc23)NC(=O)[C@H](CC(C)C)NC(=O)[C@H](CC(=O)O)NC(=O)[C@H](CCCNC(=N)N)NC(=O)[C@@H]2CCCN2C1=O [Peptide-37] | 0.00351 | – | – |
| CSCC[C@H](N)C(=O)N[C@@H](CC(=O)O)C(=O)N[C@@H](Cc1c[nH]c2ccccc12)C(=O)N[C@H]1CSSC[C@@H](C(=O)N[C@@H](Cc2ccccc2)C(=O)N[C@@H](C)C(=O)O)NC(=O)[C@H](CCC(=O)O)NC(=O)[C@H](Cc2c[nH]cn2)NC(=O)[C@H](Cc2c[nH]c3ccccc23)NC(=O)[C@H](CC(C)C)NC(=O)[C@H](CC(=O)O)NC(=O)[C@H](CCCNC(=N)N)NC(=O)[C@@H]2CCCN2C1=O [Peptide-38] | 0.00277 | – | – |
| CSCC[C@H](N)C(=O)N[C@@H](CC(=O)O)C(=O)N[C@@H](Cc1c[nH]c2ccccc12)C(=O)N[C@H]1CSSC[C@@H](C(=O)N[C@@H](Cc2ccccc2)C(=O)N[C@@H](CO)C(=O)O)NC(=O)[C@H](CC(C)C)NC(=O)[C@H](Cc2c[nH]cn2)NC(=O)[C@H](Cc2c[nH]c3ccccc23)NC(=O)[C@H](CC(C)C)NC(=O)[C@H](CC(=O)O)NC(=O)[C@H](CCCNC(=N)N)NC(=O)[C@@H]2CCCN2C1=O [Peptide-39] | 0.00265 | – | – |
| CSCC[C@H](N)C(=O)N[C@@H](CC(=O)O)C(=O)N[C@@H](Cc1c[nH]c2ccccc12)C(=O)N[C@H]1CSSC[C@@H](C(=O)N[C@@H](Cc2ccccc2)C(=O)N[C@@H](Cc2ccccc2)C(=O)O)NC(=O)[C@H](CCC(=O)O)NC(=O)[C@H](CO)NC(=O)[C@H](Cc2c[nH]c3ccccc23)NC(=O)[C@H](CC(C)C)NC(=O)[C@H](CC(=O)O)NC(=O)[C@H](CCCNC(=N)N)NC(=O)[C@@H]2CCCN2C1=O [Peptide-40] | 0.0031 | – | – |
| CSCC[C@H](N)C(=O)N[C@@H](CC(=O)O)C(=O)N[C@@H](Cc1c[nH]c2ccccc12)C(=O)N[C@H]1CSSC[C@@H](C(=O)N[C@@H](Cc2ccccc2)C(=O)N[C@@H](C)C(=O)O)NC(=O)[C@H](Cc2c[nH]cn2)NC(=O)[C@H](C(C)C)NC(=O)[C@H](Cc2c[nH]c3ccccc23)NC(=O)[C@H](CC(C)C)NC(=O)[C@H](CC(=O)O)NC(=O)[C@H](CCCNC(=N)N)NC(=O)[C@@H]2CCCN2C1=O [Peptide-41] | 0.00154 | – | – |
| CSCC[C@@H]1NC(=O)[C@H](CC(=O)O)NC(=O)[C@H](CCCNC(=N)N)NC(=O)[C@@H]2CCCN2C(=O)[C@@H](NC(=O)[C@H](Cc2c[nH]c3ccccc23)NC(=O)[C@H](CC(=O)O)NC(=O)[C@@H](N)CCSC)CSSC[C@@H](C(=O)N[C@@H](Cc2ccccc2)C(=O)N[C@@H](C)C(=O)O)NC(=O)[C@H](CCC(=O)O)NC(=O)[C@H](CC(=O)O)NC(=O)[C@H](Cc2c[nH]c3ccccc23)NC1=O [Peptide-42] | 0.00433 | – | – |
| CSCC[C@@H]1NC(=O)[C@H](CC(=O)O)NC(=O)[C@H](CCCNC(=N)N)NC(=O)[C@@H]2CCCN2C(=O)[C@@H](NC(=O)[C@H](Cc2c[nH]c3ccccc23)NC(=O)[C@H](CC(=O)O)NC(=O)[C@@H](N)CCSC)CSSC[C@@H](C(=O)N[C@@H](Cc2ccccc2)C(=O)N[C@@H](C)C(=O)O)NC(=O)[C@H](CCC(=O)O)NC(=O)[C@H](CO)NC(=O)[C@H](Cc2c[nH]c3ccccc23)NC1=O [Peptide-43] | 0.0032 | – | – |
| CSCC[C@@H]1NC(=O)[C@H](CC(=O)O)NC(=O)[C@H](CCCNC(=N)N)NC(=O)[C@@H]2CCCN2C(=O)[C@@H](NC(=O)[C@H](Cc2c[nH]c3ccccc23)NC(=O)[C@H](CC(=O)O)NC(=O)[C@@H](N)CCSC)CSSC[C@@H](C(=O)N[C@@H](Cc2ccccc2)C(=O)N[C@@H](CO)C(=O)O)NC(=O)[C@H](C(C)C)NC(=O)[C@H](CO)NC(=O)[C@H](Cc2c[nH]c3ccccc23)NC1=O [Peptide-44] | 0.00812 | – | – |
| CSCC[C@@H]1NC(=O)[C@H](Cc2ccccc2)NC(=O)[C@H](CCCNC(=N)N)NC(=O)[C@@H]2CCCN2C(=O)[C@@H](NC(=O)[C@H](Cc2c[nH]c3ccccc23)NC(=O)[C@H](CC(=O)O)NC(=O)[C@@H](N)CCSC)CSSC[C@@H](C(=O)N[C@@H](Cc2ccccc2)C(=O)N[C@@H](CC(N)=O)C(=O)O)NC(=O)[C@H](CCC(=O)O)NC(=O)[C@H](CC(=O)O)NC(=O)[C@H](Cc2c[nH]c3ccccc23)NC1=O [Peptide-45] | 0.00364 | – | – |
| Phage-434 (IVWCPTTQWNRCAT) | – | 0.113 | – |
| Phage-435 (MDWCPRDRWVDCYA) | – | 0.157 | – |

| Compound | kdis [1] [s⁻¹] | Phage binding ELISA Backgroud signal [2, 3] | also measured |
| --- | --- | --- | --- |
| Phage-436 (MDWCPRDRWADCFN) | – | 0.063 | – |
| Phage-437 (MDWCPVDRWADCFN) | – | 0.071 | – |
| Phage-438 (MDWCPMSRWAFCFD) | – | 0.071 | – |
| Phage-439 (MDWCPRDRWDVCFA) | – | 0.073 | – |
| Phage-440 (MDWCPRDRWVDCFN) | – | 0.106 | – |
| Phage-441 (MDWCPRDRWDDCFF) | – | 0.114 | – |
| Phage-442 (IYWCPIDRWNDCYN) | – | 0.177 | – |
| Phage-443 (MDWCPMTRWNDCYF) | – | 0.081 | – |
| Phage-444 (VNQCTRYRWAECLN) | – | 0.465 | – |
| Phage-445 (MDWCPRARWHDCFF) | – | 0.097 | – |
| Phage-446 (MDWCPRDRWDDCFN) | – | 0.069 | – |
| Phage-448 (MAWCPWASFDECLA) | – | 0.104 | – |
| Phage-449 (MVDCPLISFDECLA) | – | 0.246 | – |
| Phage-450 (EDWCPTDVWPYCFS) | – | 0.100 | – |
| Phage-451 (MDWCPRFWWHECYA) | – | 0.246 | – |
| Phage-452 (MDWCPRDWWHMCFN) | – | 0.100 | – |
| Phage-453 (MDWCPSDYWYVCFA) | – | – | Phage binding ELISA Backgroud signal ([2]; background signal): 0.065 |
